Laboratory results reported in patent publication US11479546B2, “Antimalarial hexahydropyrimidine analogues” (UCB Biopharma SRL, priority 2018, dated 2022).

Tested on: Plasmodium falciparum 3D7
Experiment: P. falciparum 3D7 asexual blood stage assay, Assay Procedure Version 2 (SYBR green readout)
Format: cell-based
Settings: Version 2 of the assay procedure (asterisk *), 72 h incubation in infected erythrocytes, 50,000 nM to 15 nM
Description: Asexual Blood Stage Assay
The assay used to measure the effect of test compounds on a bloodstream stage of Plasmodium falciparum 3D7 strain employs SYBR green as the readout. This is a dye that binds to double stranded deoxyribonucleic acid (DNA) with a resulting increase in fluorescence, allowing detection of P. falciparum DNA in infected erythrocytes, and thereby providing a measure of parasite growth and propagation.
P. falciparum Culture Maintenance
Erythrocytes (A+blood) were prepared for both parasite culture and assay by washing 4 times with incomplete media (15.9 g RPMI 1640 (25 mM HEPES, L-glutamine), 1 g NaHCO3, 2 g glucose, 400 μL gentacin (500 mg/mL), 2 mL hypoxanthine solution (13.6 g/L in 0.1M NaOH pH 7.3) in 1 litre of media). The cells were centrifuged at 1800 g for 5 minutes, before decanting the supernatant and re-suspending in fresh incomplete media. On the final wash, the cells were re-suspended in complete media (incomplete media with 5 g/L AlbumaxII), and centrifuged at 1800 g for 3 minutes. This cell sediment was treated as 100% haematocrit.
P. falciparum 3D7 was cultured in erythrocytes at 5% haematocrit in complete media at 37° C. (1% O2, 3% CO2, balance N2). Cultures were split on a weekly basis to achieve a 1% parasitaemia in erythrocites at 5% haematocrit in fresh media. Culture media is replaced by fresh media every other day (2 times during the week).
[formula] where A=% inhibition at bottom; B=% inhibition at top; C=EC50; D=slope; x=inhibitor concentration; and y=% inhibition. […] Assay Procedure—Version 2
On day 1, test compounds were added to assay plates using Echo dispensing technology ([…] and 20 points titration). 50 nL of each compound dilution was added to 50 μL of culture (5% haematocrit, 0.5% parasitaemia) and incubated for 72 h at 37° C. (1% O2, 3% CO2, balance N2). Final concentrations of test compounds ranged from 50,000 nM to 15 nM, in […].
On day 4, 10 μL SYBR green (Invitrogen S7563 supplied as 10,000× concentrate in DMSO) pre-diluted to 3× concentrate with Lysis buffer (20 mM Tris pH 7.9, 5% EDTA, 0.16% w/v, 1.6% TX100 v/v) was added to the cultures and incubated in the dark, overnight, at room temperature.
On day 5, fluorescent signal was measured using a BioTek plate reader (excitation 485 nm, emission 528 nm). All data were processed using IDBS ActivityBase. Raw data were converted into percent inhibition through linear regression by setting the high inhibition control (mefloquine) as 100% and the no inhibition control (DMSO) as 0%. Quality control criteria for passing plates were as follows: Z′>0.5, S:B>3, % CV(no inhibition control)<15. The formula used to calculate Z′ is:
[formula] where μ denotes the mean; σ denotes the standard deviation; p denotes the positive control; and n denotes the negative control.
All EC50 curve fitting was undertaken using the following bi-phasic two site dose response using XLfit model 300 (IDBS):
[formula] where A=100 minus the top of the upper curve 1 and the bottom of lower curve; B=Hill slope; log(C)=IC50 concentration at lower site; log(D)=IC50 concentration at upper site; x=inhibitor concentration; and y=% inhibition.

[1] = Plasmodium falciparum, 3D7, Erythrocyte, 72 h

| SMILES | IC50 [1] [µM] | IC50 [µM] |
| --- | --- | --- |
| CC1(C)CC(N2C(=N)N[C@](C)(c3cccc(Nc4cnc(C5CC5)cn4)c3Cl)CC2=O)CCO1 (single isomer, unassigned) [Example 151, (6S)-6-{2-Chloro-3-[(5-cyclo-propylpyrazin-2-yl)amino]-phenyl}-3-[(4S*)-2,2-dimethyl-tetrahydropyran-4-yl]-2-imino-6-methylhexahydropyrimidin-4-one] | 0.707 |  |
| CC1(C)CC(N2C(=N)N[C@](C)(c3cccc(Nc4ccc(C5CC5)nc4)c3Cl)CC2=O)CCO1 (single isomer, unassigned) [Example 158, (6S)-6-{2-Chloro-3-[(6-cyclo-propylpyridin-3-yl)amino]-phenyl}-3-[(4S*)-2,2-dimethyl-tetrahydropyran-4-yl]-2-imino-6-methylhexahydropyrimidin-4-one] |  | 1.73 |
| CC1(C)CC(N2C(=N)N[C@](C)(c3cccc(Nc4ccn(C5CC5)c(=O)c4)c3Cl)CC2=O)CCO1 (single isomer, unassigned) [Example 205, (6S)-6-{2-Chloro-3-[(1-cyclo-propyl-2-oxopyridin-4-yl)-amino]phenyl}-3-[(4R*)-2,2-dimethyltetrahydropyran-4-yl]-2-imino-6-methylhexahydro-pyrimidin-4-one] | 6.21 |  |
| C[C@@H]1C[C@@H](N2C(=N)N[C@](C)(c3cccc(Nc4ccc(OC(F)F)nc4)c3Cl)CC2=O)CCO1 (single isomer, unassigned; peak 1) [Example 191, (6S)-6-(2-Chloro-3-{[6-(difluoromethoxy)pyridin-3-yl]-amino}phenyl)-2-imino-6-methyl-3-[(2R*,4S*)-2-methyl-tetrahydropyran-4-yl]-hexahydropyrimidin-4-one (Peak 1)] | 0.363 |  |
| C[C@@H]1C[C@@H](N2C(=N)N[C@](C)(c3cccc(Nc4ccc(C5CC5)nc4)c3Cl)CC2=O)CCO1 (single isomer, unassigned; peak 1) [Example 193, (6S)-6-{2-Chloro-3-[(6-cyclo-propylpyridin-3-yl)amino]-phenyl}-2-imino-6-methyl-3-[(2R*,4S*)-2-methyltetrahydro-pyran-4-yl]hexahydropyrimidin-4-one (Peak 1)] | 0.148 |  |
| Cc1ccc(Nc2cccc([C@]3(C)CC(=O)N([C@H]4CCO[C@H](C)C4)C(=N)N3)c2Cl)cn1 (single isomer, unassigned; peak 1) [Example 195, (6S)-6-(2-Chloro-3-[(6-methyl-pyridin-3-yl)amino]phenyl}-2-imino-6-methyl-3-[(2R*,4S*)-2-methyltetrahydropyran-4-yl]-hexahydropyrimidin-4-one (Peak 1)] | 0.244 |  |
| C[C@H]1C[C@H](N2C(=N)N[C@](C)(c3cccc(Nc4ccc(OC(F)F)nc4)c3Cl)CC2=O)CCO1 (single isomer, unassigned; peak 2) [Example 192, (6S)-6-(2-Chloro-3-{[6-(difluoromethoxy)pyridin-3-yl]-amino}phenyl)-2-imino-6-methyl-3-[(2S*,4R*)-2-methyl-tetrahydropyran-4-yl]-hexahydropyrimidin-4-one (Peak 2)] | 3.71 |  |
| C[C@H]1C[C@H](N2C(=N)N[C@](C)(c3cccc(Nc4ccc(C5CC5)nc4)c3Cl)CC2=O)CCO1 (single isomer, unassigned; peak 2) [Example 194, (6S)-6-{2-Chloro-3-[(6-cyclo-propylpyridin-3-yl)amino]-phenyl}-2-imino-6-methyl-3-[(2S*,4R*)-2-methyltetrahydro-pyran-4-yl]hexahydropyrimidin-4-one (Peak 2)] | 0.747 |  |
| Cc1ccc(Nc2cccc([C@]3(C)CC(=O)N([C@@H]4CCO[C@@H](C)C4)C(=N)N3)c2Cl)cn1 (single isomer, unassigned; peak 2) [Example 196, (6S)-6-{2-Chloro-3-[(6-methyl-pyridin-3-yl)amino]phenyl}-2-imino-6-methyl-3-[(2S*,4R*)-2-methyltetrahydropyran-4-yl]-hexahydropyrimidin-4-one (Peak 2)] | 0.552 |  |
| C[C@@H]1C[C@H](N2C(=N)N[C@](C)(c3cccc(Nc4cc(F)c5ccnn5c4)c3Cl)CC2=O)CCO1 (stereo in doubt) [Example 137, (6S)-6-{2-Chloro-3-[(4-fluoro-pyrazolo[1,5-a]pyridin-6-yl)-amino]phenyl}-2-imino-6-methyl-3-[(cis)-2-methyl-tetrahydropyran-4-yl]-hexahydropyrimidin-4-one] | 0.158 |  |
| C[C@@H]1C[C@H](N2C(=N)N[C@](C)(c3cccc(Nc4ccc(OC(F)F)nc4)c3Cl)CC2=O)CCO1 (stereo in doubt) [Example 138, (6S)-6-(2-Chloro-3-{[6-(difluoromethoxy)pyridin-3-yl]-amino}phenyl)-2-imino-6-methyl-3-[(cis)-2-methyl-tetrahydropyran-4-yl]-hexahydropyrimidin-4-one] | 0.019 |  |
| C[C@@]1(c2cccc(Nc3ccc(OC(F)F)nc3)c2Cl)CC(=O)N(C2CCOCC2)C(=N)N1 [Example 42, (6S)-6-(2-Chloro-3-{[6-(difluoromethoxy)pyridin-3-yl]-amino}phenyl)-2-imino-6-methyl-3-(tetrahydropyran-4-yl)hexahydropyrimidin-4-one] | 0.269 |  |
| C[C@@]1(c2cccc(Nc3ccccc3S(C)(=O)=O)c2Cl)CC(=O)N(C2CCOCC2)C(=N)N1 [Example 43, (6S)-6-[2-Chloro-3-(2-methyl-sulfonylanilino)phenyl]-2-imino-6-methyl-3-(tetrahydro-pyran-4-yl)hexahydropyrimidin-4-one] | 0.063 |  |
| Cc1cnc(Nc2cccc([C@]3(C)CC(=O)N(C4CCOCC4)C(=N)N3)c2Cl)cn1 [Example 44, (6S)-6-{2-Chloro-3-[(5-methyl-pyrazin-2-yl)amino]phenyl}-2-imino-6-methyl-3-(tetrahydro-pyran-4-yl)hexahydropyrimidin-4-one] | 0.815 |  |
| C[C@@]1(c2cccc(Nc3ccc(OC(F)(F)F)nc3)c2Cl)CC(=O)N(C2CCOCC2)C(=N)N1 [Example 45, (6S)-6-(2-Chloro-3-{[6-(trifluoromethoxy)pyridin-3-yl]-amino}phenyl)-2-imino-6-methyl-3-(tetrahydropyran-4-yl)hexahydropyrimidin-4-one] | 0.305 |  |
| C[C@@]1(c2cccc(Nc3cncc4ccccc34)c2Cl)CC(=O)N(C2CCOCC2)C(=N)N1 [Example 46, (6S)-6-[2-Chloro-3-(isoquinolin-4-ylamino)phenyl]-2-imino-6-methyl-3-(tetrahydropyran-4-yl)hexahydropyrimidin-4-one] | 0.425 |  |
| COc1cc(C#N)ccc1Nc1cccc([C@]2(C)CC(=O)N(C3CCOCC3)C(=N)N2)c1Cl [Example 47, 4-{2-Chloro-3-[(4S)-2-imino-4-methyl-6-oxo-1-(tetrahydro-pyran-4-yl)hexahydropyrimidin-4-yl]anilino}-3-methoxy-benzonitrile] | 0.171 |  |
| C[C@@]1(c2cccc(Nc3cnccc3C#N)c2Cl)CC(=O)N(C2CCOCC2)C(=N)N1 [Example 48, 3-{2-Chloro-3-[(4S)-2-imino-4-methyl-6-oxo-1-(tetrahydro-pyran-4-yl)hexahydropyrimidin-4-yl]anilino}pyridine-4-carbo-nitrile] | 0.386 |  |
| COc1ncc(Nc2cccc([C@]3(C)CC(=O)N(C4CCOCC4)C(=N)N3)c2Cl)cc1F [Example 49, (6S)-6-{2-Chloro-3-[(5-fluoro-6-methoxypyridin-3-yl)amino]-phenyl}-2-imino-6-methyl-3-(tetrahydropyran-4-yl)-hexahydropyrimidin-4-one] | 0.468 |  |
| COc1ncccc1Nc1cccc([C@]2(C)CC(=O)N(C3CCOCC3)C(=N)N2)c1Cl [Example 50, (6S)-6-{2-Chloro-3-[(2-methoxypyridin-3-yl)amino]-phenyl}-2-imino-6-methyl-3-(tetrahydropyran-4-yl)-hexahydropyrimidin-4-one] | 0.373 |  |
| C[C@@]1(c2cccc(Nc3cccnc3C#N)c2Cl)CC(=O)N(C2CCOCC2)C(=N)N1 [Example 51, 3-{2-Chloro-3-[(4S)-2-imino-4-methyl-6-oxo-1-(tetrahydro-pyran-4-yl)hexahydropyrimidin-4-yl]anilino}pyridine-2-carbo-nitrile] | 0.37 |  |
